Reference: EPA's ToxRefDB 2

Columns and labels:
[1] = system: mouse; conditions: Subchronic oral toxicity in rodents, b6c3f1, Feed, dose end: 13 week, group: systemic
[2] = system: rat; conditions: Subchronic oral toxicity in rodents, fischer, Feed, dose end: 13 week, group: systemic
[3] = system: mouse; conditions: Carcinogenicity, b6c3f1, Oral, Feed, dose end: 2 year, group: systemic
[4] = system: rat; conditions: Carcinogenicity, fischer, Oral, Feed, dose end: 2 year, group: systemic
[5] = system: mouse; conditions: Subchronic oral toxicity in rodents, cd1, Water, dose end: 90 day, group: systemic, systemic / hematology / leukocyte (wbc) count differential / leukocyte (wbc)
[6] = system: rat; conditions: Multigenerational reproductive toxicity study, wistar, Oral, Feed, dose end: 2 generation
[7] = system: rat; conditions: Prenatal developmental toxicity study, fischer, Oral, Gavage/Intubation, dose end: 15 GD
[8] = systemic / pathology microscopic / liver / necrosis
[9] = systemic / in life observation / body weight / body weight + systemic / pathology microscopic / bone marrow / atrophy + systemic / in life …
[10] = systemic / in life observation / body weight / body weight
[11] = systemic / in life observation / body weight / body weight + systemic / in life observation / food consumption / food consumption
[12] = systemic / in life observation / food consumption / food consumption
[13] = group: offspring, systemic / pathology gross / mammary gland / discolored + systemic / pathology gross / mammary gland / enlarged
[14] = group: parental, systemic / in life observation / clinical signs / body surface staining + systemic / in life observation / body weight / body weight + …
[15] = group: parental, systemic / organ weight / pituitary gland / absolute + systemic / organ weight / pituitary gland / relative to body weight
[16] = group: reproductive, reproductive / reproductive performance / implantations / implantations
[17] = group: developmental, developmental / developmental malformation / bone / delayed ossification + developmental / developmental malformation / bone / unossified + …
[18] = group: maternal, systemic / in life observation / body weight / body weight + systemic / in life observation / body weight / body weight gain + systemic / in…
[19] = group: maternal, systemic / in life observation / body weight / body weight gain + systemic / in life observation / clinical signs / urogenital staining

For Oc1ccc(Cl)cc1Cl [2,4-Dichlorophenol], the NOAEL ([1]; systemic / in life observation / body weight / body weight + systemic / in life observation / clinical signs / fur (altered appearance) + …) was 1500 mg/kg/day, the LOAEL ([1]; systemic / in life observation / body weight / body weight + systemic / pathology microscopic / liver / necrosis + systemic / pathology …) was 3000 mg/kg/day and the LEL [1, 8] was 375 mg/kg/day. For the same molecule, the NEL [1, 8] was less than 375 mg/kg/day, the LOAEL ([2]; systemic / in life observation / body weight / body weight + systemic / pathology microscopic / bone marrow / atrophy) was 1000 mg/kg/day and the NEL [2, 9] was 250 mg/kg/day. It also gave an NOAEL [2, 9] of 500 mg/kg/day, an LEL ([2]; systemic / pathology microscopic / bone marrow / atrophy) of 500 mg/kg/day and an LOAEL [3, 10] of 430 mg/kg/day. It also gave an NOAEL [3, 10] of less than 430 mg/kg/day, an LEL [3, 11] of 430 mg/kg/day and an NEL [3, 11] of less than 430 mg/kg/day. The LEL [4, 12] was 120 mg/kg/day, the NEL [4, 12] was less than 120 mg/kg/day and the LOAEL ([4]; systemic / pathology microscopic / nose / degeneration) was 210 mg/kg/day. For the same molecule, the LEL [5] was 383 mg/kg/day, the LOAEL [5] was greater than 383 mg/kg/day and the NEL [5] was 114 mg/kg/day. For the same molecule, the NOAEL [5] was no less than 383 mg/kg/day, the LOAEL ([6]; group: offspring, developmental / developmental malformation / eye / open eye + systemic / in life observation / body weight / offspring (pup) weight) was 543 mg/kg/day and the NOAEL ([6]; group: offspring, developmental / developmental malformation / eye / open eye + systemic / in life observation / body weight / offspring (pup) weight + …) was 134 mg/kg/day. The LEL [6, 13] was 49.1 mg/kg/day, the NEL [6, 13] was less than 49.1 mg/kg/day and the LOAEL [6, 14] was 543 mg/kg/day. The NOAEL [6, 14] was 134 mg/kg/day, the LEL [6, 15] was 33.4 mg/kg/day and the NEL [6, 15] was less than 33.4 mg/kg/day. It also gave an LEL [6, 16] of 768 mg/kg/day, an LOAEL [6, 16] of 768 mg/kg/day and an NEL [6, 16] of 194 mg/kg/day. For the same molecule, the NOAEL [6, 16] was 194 mg/kg/day, the LEL [7, 17] was 750 mg/kg/day and the LOAEL [7, 17] was greater than 750 mg/kg/day. It also gave an NEL [7, 17] of 375 mg/kg/day, an NOAEL [7, 17] of no less than 750 mg/kg/day and an LOAEL [7, 18] greater than 750 mg/kg/day. The NOAEL [7, 18] was no less than 750 mg/kg/day, the LEL [7, 19] was 200 mg/kg/day and the NEL [7, 19] was less than 200 mg/kg/day.
